The numbers were not newly measured in patent US12414956B2, “Method for smoking cessation” (CALISTA CAPITAL, LLC, priority 2017, dated 2025), which cites them from elsewhere.

SMILES strings stand for the structures. Read-outs that look alike come from different tables or passages of the source.

The term AUC denotes concentration integrated over time. As a reminder, the Cmax is the highest concentration seen after dosing.

For data set [1] the following is noted: after six months, clinical trials.
The conditions of data set [2]: mean, capsules, adult subjects, plasma.

Take `c1cnc2cc3c(cc2n1)[C@@H]1CNC[C@H]3C1` [CHANTIX, varenicline]: in data set [1], the success rate is given as 14%.
As for `C=CC1=C(C(=O)O)N2C(=O)[C@@H](NC(=O)/C(=N\O)c3csc(N)n3)[C@H]2SC1` [Cefdinir, cefdinir], in data set [2] (single 300 mg oral dose), the AUC was 7.05 µg·h/mL, the Cmax is 1.60 µg/mL and the tmax was 2.9 h. Moreover, in data set [2] (single 600 mg oral dose), the AUC was 11.1 µg·h/mL, the Cmax is 2.87 µg/mL and the tmax is 3.0 h.
